Measurements: US20030157672A1, “Nitrilase from rhodococcus rhodochrous ncimb 11216” (priority 2000, published 2003)

B1: nitrilase with His6 motif: Recombinant nitA nitrilase of R. rhodochrous NCIMB 11216 with C-terminal His6 motif from E. coli JM 109 (pDHE 18), purified on Ni2+-NTA (protein, UniProt Q03217 2-366, looked up)
Aliphatic nitrilase: VEYTNTFKVAAVQAQPVWFDAAKTVDKTVSIIAEAARNGCELVAFPEVFIPGYPYHIWVDSPLAGMAKFAVRYHENSLTMDSPHVQRLLDAARDHNIAVVVGISERDGGSLYMTQLVIDADGQLVARRRKLKPTHVERSVYGEGNGSDISVYDMPFARLGALNCWEHFQTLTKYAMYSMHEQVHVASWPGMSLYQPEVPAFGVDAQLTATRMYALEGQTFVVCTTQVVTPEAHEFFCDNDEQRKLIGRGGGFARIIGPDGRDLATPLAEDEEGILYADIDLSAITLAKQAADPVGHYSRPDVLSLNFNQRHTTPVNTAISTIHATHTLVPQSGALDGVRELNGADEQRALPSTHSDETDRATASI
modifications: C-terminal His6 tag
notes: Recombinant nitA nitrilase of R. rhodochrous NCIMB 11216 with C-terminal His6 motif from E. coli JM 109 (pDHE 18), purified on Ni2+-NTA

Experiments:
[1] = system: nitrilase (nitA) from Rhodococcus rhodochrous NCIMB 11216 expressed in E. coli JM 109; assay: Conversion of nitriles by E. coli JM 109 (pDHE 17 and pDHE 18) cells; NH4 ions produced in supernatant, measured at 620 nm; assay type: biochemical; conditions: 30° C., 1 h, measurement at 620 nm; for amount of NH4 ions produced in the supernatant (Table 2, Experiment 2): Experiment 2, in analogy to Experiment 1, E. coli JM 109 cells; for amount of NH4 ions produced in the supernatant (Table 1, Experiment 1): E. coli JM 109 (pDHE 17 and pDHE 18) cells, 2 g DBM/l, 200 rpm
Protocol: Various nitriles were converted using the E. coli strains JM 109 (pDHE 17 and pDHE 18). The cells were for this purpose cultured in 250 ml LB/Amp medium+2 g/l rhamnose at 30° C. and 200 rpm for 9 hours (=h). The cells were harvested by-centrifugation (20 min, 4° C., 5000 rpm). The cells were then resuspended in 10 mM phosphate buffer, pH 7.2, so that the concentration of dry biomass (DBM) was 2 g DBM/l. 150 μl portions of the cell suspension were pipetted into each well of a microtiter plate. The plate was then centrifuged. The supernatant was aspirated off and the cell pellets were washed twice with Na2HPO4 [sic] (1.42 g/lin Finnagua, pH 7.2). After another centrifugation step, the cell pellets are [sic] resuspended in the respective substrate solution (150 μl). One substrate was added to each row of 12 in the microtiter plate. A row with substrate solution but without cells was used as control (blank). The microtiter plates were incubated in a shaking incubator at 30° C. and 200 rpm for 1 h. The cells were then spun down and the amount of NH4 [sic] ions produced in the supernatant was determined using a Biomek instrument. Measurement took place at 620 nm, comparing with a calibration plot produced using various NH4OH solutions. The substrates employed in Experiment 1 (see FIG. 3, Table 1) were the following substrates: benzonitrile (=1), 3-hydroxypropionitrile (=2), 2-methylglutaronitrile (=3), 4-chloro-3-hydroxybutyronitrile (=4), malononitrile (=5), crotononitrile (=6), geranonitrile (=7), octanedinitrile (=8), pivalonitrile (=9), aminocapronitrile (=10), 3,4-dihydroxybenzonitrile (=11), 3,5-dibromo-4-hydroxybenzonitrile (=12), 3-cyanopyridine (=13), 4-bromobenzyl cyanide (=14), 4-chlorobenzyl cyanide (=15), 2-phenylbutyronitrile (=16), 2-chlorobenzyl cyanide (=17), 2-pyridylacetonitrile (=18), 4-fluorobenzyl cyanide (=19), 4-methylbenzonitrile (=20), benzyl cyanide (=21). The substrates used in Experiment 2 (see FIG. 4, Table 2), which was carried out in analogy to Experiment 1, were as follows: […]

[2] = Conversion of benzonitrile into benzoic acid by nitrilase crude extract or purified nitrilase (HPLC); assay type: biochemical; conditions: purified using QIAexpress-Ni2+-NTA; enzyme concentration 50 μg/ml; initial benzonitrile 10 mM, 30° C., pH 7.5, 50 mM Tris/HCl, 0.1 mM DTT
Protocol: For heterologous expression on the laboratory scale, JM 109 (pDHE 17) from a 37° C. overnight culture was inoculated 1:200 in 50 ml dYT complete mediumn (Sambrook et al., 1989) with 0.2% L-rhamnose, and the culture was cultivated with induction in the shaking water bath at 30° C. for 8 h. The cells were then washed once in 50 mM Tris/HCl, pH 7.5, resuspended in the same buffer equivalent to an OD600 of 10, and disrupted by ultrasound treatment. The procedure with JM 109 (pDHE 18) was analogous. The protein pattern of the crude extracts obtained by ultrasound treatment and clarified by centrifugation was determined by SDS polyacrylamide gel electrophoresis, comparing with the noninduced control; with the induction conditions mentioned, the proportion of nitrilase in the protein was about 30% for each of JM 109 (pDHE 17) and JM 109 (pDHE 18).
The nitrilase with His6 motif from JM 109 (pDHE 18) was purified by washing the cells in 50 mM Tris/HCl, pH 7.5, resuspending equivalent to about 50 OD600/ml and preparing extracts with a French press (2×at 20000 psi). […]
In this case, one unit is equivalent to the production of 1 μmol of benzoic acid at an initial benzonitrile concentration of 10 mM, 30° C. and pH 7.5. […] The formation of benzoic acid was determined by HPLC (RP18 column, 250×4 [lacuna], mobile phase 47% methanol, 0.3% H3PO4).

Row | Molecule | amount of NH4 ions produced in the supernatant (Table 2, Experiment 2) [1] | amount of NH4 ions produced in the supernatant (Table 1, Experiment 1) [1] | other results
1 | N#CC(N)c1ccccc1 (stereo not shown) [2-Amino-2-phenylacetonitrile] | 0.0000 |  | 
2 | N#CCc1ccccc1Cl [2-Chlorobenzyl cyanide] |  | 0.4530 | 
3 | N#CC(O)CCc1ccccc1 (stereo not shown) [2-Hydroxy-4-phenylbutyronitrile] | 0.0000 |  | 
4 | CC(O)C#N (stereo not shown) [2-Hydroxypropionitrile] | 0.0000 |  | 
5 | CC(C#N)CCC#N (stereo not shown) [2-Methylglutaronitrile] |  | 0.4758 | 
6 | CCC(C#N)c1ccccc1 (stereo not shown) [2-Phenylbutyronitrile] |  | 0.1376 | 
7 | CC(C#N)c1ccccc1 (stereo not shown) [2-Phenylpropionitrile] | 0.0000 |  | 
8 | N#CCc1ccccn1 [2-Pyridylacetonitrile] |  | 0.1222 | 
9 | COC(CC#N)OC [3,3-Dimethoxypropionitrile] | 0.1466 |  | 
10 | N#Cc1ccc(O)c(O)c1 [3,4-Dihydroxybenzonitrile] |  | 0.1569 | 
11 | N#Cc1cc(Br)c(O)c(Br)c1 [3,5-Dibromo-4-hydroxybenzonitrile] |  | 0.1624 | 
12 | N#CCc1ccsc1 [3-Cyanomethylthiophene] | 0.9949 |  | 
13 | N#Cc1cccnc1 [3-Cyanopyridine] |  | 0.2393 | 
14 | N#Cc1ccsc1 [3-Cyanothiophene] | 1.9038 |  | 
15 | N#CCCO [3-Hydroxypropionitrile] |  | 0.1785 | 
16 | N#CCC(CC#N)c1ccccc1 [3-Phenylglutaronitrile] | 0.0000 |  | 
17 | N#CCc1ccc(Br)cc1 [4-Bromobenzyl cyanide] |  | 0.5213 | 
18 | N#CCC(O)CCl (stereo not shown) [4-Chloro-3-hydroxybutyronitrile] |  | 0.1208 | 

Row | Molecule | amount of NH4 ions produced in the supernatant (Table 2, Experiment 2) [1] | amount of NH4 ions produced in the supernatant (Table 1, Experiment 1) [1] | other results
19 | N#CCc1ccc(Cl)cc1 [4-Chlorobenzyl cyanide] |  | 0.4830 | 
20 | N#CCc1ccc(F)cc1 [4-Fluorobenzyl cyanide] |  | 0.2361 | 
21 | Cc1ccc(C#N)cc1 [4-Methylbenzonitrile] |  | 0.4326 | 
22 | N#CCCCCCN [Aminocapronitrile] |  | 0.1236 | 
23 | N#Cc1ccccc1 [Benzonitrile] | 1.9518 | 0.4051 | 
24 | N#CCc1ccccc1 [Benzyl cyanide] |  | 0.2755 | 
25 | CC=CC#N [Crotononitrile] |  | 0.4946 | 
26 | N#C/C=C/C#N [Fumaronitrile] | 2.2510 |  | 
27 | CC(C)=CCC/C(C)=C/C#N [Geranonitrile] |  | 0.1517 | 
28 | N#CCCCC#N [Glutaronitrile] | 2.0809 |  | 
29 | N#CCC#N [Malononitrile] |  | 0.1208 | 
30 | N#CC(O)c1ccccc1 (stereo not shown) [Mandelonitrile] | 0.0000 |  | 
31 | N#CCCCCCCC#N [Octanedinitrile] |  | 0.4548 | 
32 | CC(C)(C)C#N [Pivalonitrile] |  | 0.1569 | 
33 | CCC#N [Propionitrile] | 0.4135 |  | 
34 | CCCCC#N [Valeronitrile] | 1.9218 |  | 
35 | N#C/C=C/c1ccccc1 [trans-cinnamonitrile] | 2.2509 |  | 
36 | B1 |  |  | conversion of 2-benzonitrile [sic] into benzoic acid (specific activity), purified nitrilase [2]: around 11 U/mg
